Experimental data from PubChem BioAssay (NCI).
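Exposure lasted 48 hours, with cells grown in 96-well plates and compounds tested at five concentrations. Definition used: TGI = concentration required for complete inhibition of growth.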

How the values were obtained:
Experiment in all cases: NCI tumour cell line growth inhibition, 48 h
HCT-15 colon = system: HCT-15 colon
UACC-257 melanoma = system: UACC-257 melanoma
KM20L2 colon = system: KM20L2 colon
HT29 colon = system: HT29 colon
RXF 393 renal = system: RXF 393 renal
SF-268 CNS = system: SF-268 CNS
COLO 205 colon = system: COLO 205 colon
SNB-19 CNS = system: SNB-19 CNS
SNB-75 CNS = system: SNB-75 CNS
A498 renal = system: A498 renal
HOP-62 NSCLC = system: HOP-62 NSCLC
UACC-62 melanoma = system: UACC-62 melanoma
HCT-116 colon = system: HCT-116 colon
OVCAR-4 ovarian = system: OVCAR-4 ovarian
NCI-H226 lung = system: NCI-H226 lung
SK-MEL-28 melanoma = system: SK-MEL-28 melanoma
786-0 renal = system: 786-0 renal
DMS 114 small cell lung = system: DMS 114 small cell lung
IGROV1 ovarian = system: IGROV1 ovarian
HOP-18 NSCLC = system: HOP-18 NSCLC
EKVX NSCLC = system: EKVX NSCLC
K-562 leukemia = system: K-562 leukemia
M14 melanoma = system: M14 melanoma
DMS 273 small cell lung = system: DMS 273 small cell lung
SNB-78 CNS = system: SNB-78 CNS
RPMI-8226 leukemia = system: RPMI-8226 leukemia
KM12 colon = system: KM12 colon
NCI-H23 lung = system: NCI-H23 lung
M19-MEL melanoma = system: M19-MEL melanoma
CAKI-1 renal = system: CAKI-1 renal
SK-MEL-2 melanoma = system: SK-MEL-2 melanoma
A549 NSCLC = system: A549 NSCLC
SF-539 CNS = system: SF-539 CNS
SN12C renal = system: SN12C renal
SW-620 colon = system: SW-620 colon
OVCAR-5 ovarian = system: OVCAR-5 ovarian
LXFL 529 NSCLC = system: LXFL 529 NSCLC
SR leukemia = system: SR leukemia
OVCAR-3 ovarian = system: OVCAR-3 ovarian
OVCAR-8 ovarian = system: OVCAR-8 ovarian
NCI-H460 lung = system: NCI-H460 lung
MALME-3M melanoma = system: MALME-3M melanoma
SK-OV-3 ovarian = system: SK-OV-3 ovarian
UO-31 renal = system: UO-31 renal
DLD-1 colon = system: DLD-1 colon
SF-295 CNS = system: SF-295 CNS
U251 CNS = system: U251 CNS
HCC-2998 colon = system: HCC-2998 colon
ACHN renal = system: ACHN renal
CCRF-CEM leukemia = system: CCRF-CEM leukemia
TK-10 renal = system: TK-10 renal
NCI-H522 lung = system: NCI-H522 lung
HL-60(TB) leukemia = system: HL-60(TB) leukemia
HOP-92 NSCLC = system: HOP-92 NSCLC
MOLT-4 leukemia = system: MOLT-4 leukemia
SK-MEL-5 melanoma = system: SK-MEL-5 melanoma

Work on `Cc1ccccc1NC(=O)C(=O)CC(=O)c1c(C)n([O-])c2ccccc2[n+]1=O` yielded a TGI (HCT-15 colon) greater than 100 µM, a TGI (UACC-257 melanoma) greater than 100 µM and a TGI (KM20L2 colon) greater than 100 µM. It also gave a TGI (HT29 colon) greater than 100 µM, a TGI (RXF 393 renal) greater than 100 µM and a TGI (SF-268 CNS) greater than 100 µM. It also gave a TGI (COLO 205 colon) greater than 100 µM, a TGI (SNB-19 CNS) greater than 100 µM and a TGI (SNB-75 CNS) greater than 100 µM. The TGI (A498 renal) was greater than 100 µM, the TGI (HOP-62 NSCLC) was greater than 100 µM and the TGI (UACC-62 melanoma) was greater than 100 µM. It also gave a TGI (HCT-116 colon) greater than 100 µM, a TGI (OVCAR-4 ovarian) greater than 100 µM and a TGI (NCI-H226 lung) greater than 100 µM. For the same molecule, the TGI (SK-MEL-28 melanoma) was greater than 100 µM, the TGI (786-0 renal) was greater than 100 µM and the TGI (DMS 114 small cell lung) was greater than 100 µM. It also gave a TGI (IGROV1 ovarian) greater than 100 µM, a TGI (HOP-18 NSCLC) greater than 100 µM and a TGI (EKVX NSCLC) greater than 100 µM. For the same molecule, the TGI (K-562 leukemia) was greater than 100 µM, the TGI (M14 melanoma) was greater than 100 µM and the TGI (DMS 273 small cell lung) was greater than 100 µM. For the same molecule, the TGI (SNB-78 CNS) was greater than 100 µM, the TGI (RPMI-8226 leukemia) was greater than 100 µM and the TGI (KM12 colon) was greater than 100 µM. The TGI (NCI-H23 lung) was greater than 100 µM, the TGI (M19-MEL melanoma) was greater than 100 µM and the TGI (CAKI-1 renal) was greater than 100 µM. The TGI (SK-MEL-2 melanoma) was greater than 100 µM, the TGI (A549 NSCLC) was greater than 100 µM and the TGI (SF-539 CNS) was greater than 100 µM. The TGI (SN12C renal) was greater than 100 µM, the TGI (SW-620 colon) was greater than 100 µM and the TGI (OVCAR-5 ovarian) was greater than 100 µM. For the same molecule, the TGI (LXFL 529 NSCLC) was greater than 100 µM, the TGI (SR leukemia) was 0.0875 µM and the TGI (OVCAR-3 ovarian) was greater than 100 µM. The TGI (OVCAR-8 ovarian) was greater than 100 µM, the TGI (NCI-H460 lung) was greater than 100 µM and the TGI (MALME-3M melanoma) was greater than 100 µM. The TGI (SK-OV-3 ovarian) was greater than 100 µM, the TGI (UO-31 renal) was greater than 100 µM and the TGI (DLD-1 colon) was greater than 100 µM. For the same molecule, the TGI (SF-295 CNS) was greater than 100 µM, the TGI (U251 CNS) was greater than 100 µM and the TGI (HCC-2998 colon) was greater than 100 µM. It also gave a TGI (ACHN renal) greater than 100 µM.

In the case of `Cc1nc2c(sc(=S)n2-c2ccccc2)c(=O)[nH]1`, the TGI (UACC-257 melanoma) is reported as greater than 100 µM, the TGI (HT29 colon) is reported as greater than 100 µM and the TGI (CCRF-CEM leukemia) is reported as greater than 100 µM. It also gave a TGI (SF-268 CNS) greater than 100 µM, a TGI (COLO 205 colon) greater than 100 µM and a TGI (SNB-19 CNS) greater than 100 µM. The TGI (A498 renal) was greater than 100 µM, the TGI (HOP-62 NSCLC) was greater than 100 µM and the TGI (TK-10 renal) was greater than 100 µM. The TGI (UACC-62 melanoma) was greater than 100 µM, the TGI (HCT-116 colon) was greater than 100 µM and the TGI (NCI-H226 lung) was greater than 100 µM. For the same molecule, the TGI (NCI-H522 lung) was greater than 100 µM, the TGI (SK-MEL-28 melanoma) was greater than 100 µM and the TGI (IGROV1 ovarian) was greater than 100 µM. It also gave a TGI (HOP-18 NSCLC) greater than 100 µM, a TGI (K-562 leukemia) greater than 100 µM and a TGI (RPMI-8226 leukemia) greater than 100 µM. It also gave a TGI (KM12 colon) greater than 100 µM, a TGI (HL-60(TB) leukemia) greater than 100 µM and a TGI (NCI-H23 lung) greater than 100 µM. For the same molecule, the TGI (SK-MEL-2 melanoma) was greater than 100 µM, the TGI (A549 NSCLC) was greater than 100 µM and the TGI (SF-539 CNS) was greater than 100 µM. It also gave a TGI (HOP-92 NSCLC) greater than 100 µM, a TGI (SW-620 colon) greater than 100 µM and a TGI (OVCAR-5 ovarian) greater than 100 µM. For the same molecule, the TGI (LXFL 529 NSCLC) was greater than 100 µM, the TGI (MOLT-4 leukemia) was greater than 100 µM and the TGI (SR leukemia) was greater than 100 µM. The TGI (OVCAR-3 ovarian) was greater than 100 µM, the TGI (OVCAR-8 ovarian) was greater than 100 µM and the TGI (NCI-H460 lung) was greater than 100 µM. It also gave a TGI (MALME-3M melanoma) greater than 100 µM, a TGI (SK-OV-3 ovarian) greater than 100 µM and a TGI (UO-31 renal) greater than 100 µM. The TGI (DLD-1 colon) was greater than 100 µM, the TGI (SF-295 CNS) was greater than 100 µM and the TGI (SK-MEL-5 melanoma) was greater than 100 µM. For the same molecule, the TGI (U251 CNS) was greater than 100 µM, the TGI (HCC-2998 colon) was greater than 100 µM and the TGI (ACHN renal) was greater than 100 µM.
